The values below come from article PMC6391970, “Design, Synthesis and Characterization of Covalent KDM5 Inhibitors” (Angewandte Chemie (International Ed. in English), 2018).

Like-named read-outs stand apart in the source and are kept apart here.

In assay [1] the target is T1, KDM2A (Homo sapiens, UniProt Q9Y2K7).
T1 sequence (Q9Y2K7 1-1162): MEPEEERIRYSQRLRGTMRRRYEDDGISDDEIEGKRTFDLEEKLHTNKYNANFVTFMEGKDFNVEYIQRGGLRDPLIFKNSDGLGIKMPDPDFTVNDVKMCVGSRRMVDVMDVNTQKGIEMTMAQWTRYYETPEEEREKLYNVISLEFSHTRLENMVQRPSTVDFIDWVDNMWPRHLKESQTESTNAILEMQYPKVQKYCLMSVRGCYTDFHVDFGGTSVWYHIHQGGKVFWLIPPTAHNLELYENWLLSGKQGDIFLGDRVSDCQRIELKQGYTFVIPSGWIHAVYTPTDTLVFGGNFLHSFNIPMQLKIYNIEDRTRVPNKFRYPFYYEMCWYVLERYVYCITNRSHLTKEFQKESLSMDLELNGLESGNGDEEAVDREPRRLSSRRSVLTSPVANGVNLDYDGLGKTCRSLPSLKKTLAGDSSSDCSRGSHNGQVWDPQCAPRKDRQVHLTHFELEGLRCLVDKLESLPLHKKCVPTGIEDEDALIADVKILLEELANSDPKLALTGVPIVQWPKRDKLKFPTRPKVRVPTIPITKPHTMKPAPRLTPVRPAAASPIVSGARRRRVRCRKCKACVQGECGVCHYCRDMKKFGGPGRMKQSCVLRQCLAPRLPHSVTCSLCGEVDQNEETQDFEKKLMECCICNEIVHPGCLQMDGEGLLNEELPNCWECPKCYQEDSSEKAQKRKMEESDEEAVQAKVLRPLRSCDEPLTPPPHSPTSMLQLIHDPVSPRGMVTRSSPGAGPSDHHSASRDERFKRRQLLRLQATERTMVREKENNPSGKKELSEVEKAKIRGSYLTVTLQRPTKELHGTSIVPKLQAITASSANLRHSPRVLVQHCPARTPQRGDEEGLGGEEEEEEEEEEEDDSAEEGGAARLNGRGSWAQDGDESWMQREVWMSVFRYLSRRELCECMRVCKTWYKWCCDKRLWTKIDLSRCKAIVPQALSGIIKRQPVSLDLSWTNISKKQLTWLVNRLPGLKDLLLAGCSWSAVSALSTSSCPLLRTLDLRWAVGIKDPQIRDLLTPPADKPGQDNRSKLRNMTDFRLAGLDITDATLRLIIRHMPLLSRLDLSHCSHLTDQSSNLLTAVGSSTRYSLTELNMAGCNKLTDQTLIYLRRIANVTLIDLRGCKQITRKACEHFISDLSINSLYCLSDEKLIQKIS
Nature of the assay: KDM AlphaScreen selectivity panel, KDM2A. Format: biochemical. As to conditions: for IC50: AlphaScreen after 120 min pre-incubation, read-out: KDM IC50 2A; for SI over KDM5B, 2A: KDM2A IC50/KDM5B IC50. On the procedure:
(§1) A panel of JmjC KDMs was tested by AlphaScreen to determine the selectivity of the compounds (Table S2). […]
(§2) KDM alpha screen selectivity
(§3) Inhibition of histone demethylases was assessed using the histone demethylase AlphaScreen assay (Amplified Luminescence Proximity Homogenous Assay) as previously reported.[4] The basis of this assay for lysine demethylases have been widely described.[5] In brief, the assay was performed in 384-well plate format using white proxiplates (PerkinElmer), and transfer of titrations of compounds (100 nl) was performed using an ECHO 550 acoustic dispenser […]
(§4) Tween- 20) containing the appropriate demethylase enzyme (see Supplementary table 1 for final concentrations) was transferred to each well of a 384-well proxiplate with a Multidrop™ Combi Reagent Dispenser, and the enzymes allowed to pre-incubate for 120 minutes with compound (final concentration of DMSO was 1%). After that time, the enzyme reaction was initiated by addition of 5 µl of a substrate mix consisting of Ketoglutarate (2-OG), Ferrous Ammonium Sulphate (FAS), L-Ascorbic Acid (LAA) and biotinylated peptide substrate (see Supporting table X for final assay concentrations) and the reaction incubated for the indicated time at room temperature. Reaction was stopped by the addition of 5 μl of assay buffer containing EDTA (7.5 mM) and NaCl (400 mM). Streptavidin Donor beads (0.08 mg/ml) and Protein-A conjugated acceptor beads (0.08 mg/ml) (AlphaScreen General IgG detection kit was from Perkin Elmer) were pre-incubated for 1 hour with an antibody to the product methyl mark (Supplementary Table 1) and the presence of biotin-H3-product was detected by addition of 5 µl of the pre-incubated AlphaScreen beads (final concentrations of 0.02 mg/ml with respect to acceptor and donor beads). Detection was allowed to proceed for 2 hour at room temperature and the assay plates read in a BMG Labtech Pherastar FS plate reader (excitation, 680 nm; emission, 570 […]
(§5) IC50(t) = Ki (1 + K ) . ( η . k .t − 1) (1) […]
(§6) Table S4. AlphaScreen assay conditions for the KDM selectivity panel

The target of assay [2] is KDM5A (Homo sapiens, UniProt P29375). The experiment in a line: KDM AlphaScreen selectivity panel, KDM5A. Type of assay: biochemical. As to conditions: for SI over KDM5B, 5A: KDM5A IC50/KDM5B IC50. On the procedure:
as §1, §2, §3, §4, §5, §6
On the technique in general: Bead proximity is the source of the signal in Alpha formats.

The mark [3] stands for this setting: AlphaScreen after 120 min pre-incubation, read-out: KDM IC50 5A.

KDM5A, sequence (P29375 whole entry): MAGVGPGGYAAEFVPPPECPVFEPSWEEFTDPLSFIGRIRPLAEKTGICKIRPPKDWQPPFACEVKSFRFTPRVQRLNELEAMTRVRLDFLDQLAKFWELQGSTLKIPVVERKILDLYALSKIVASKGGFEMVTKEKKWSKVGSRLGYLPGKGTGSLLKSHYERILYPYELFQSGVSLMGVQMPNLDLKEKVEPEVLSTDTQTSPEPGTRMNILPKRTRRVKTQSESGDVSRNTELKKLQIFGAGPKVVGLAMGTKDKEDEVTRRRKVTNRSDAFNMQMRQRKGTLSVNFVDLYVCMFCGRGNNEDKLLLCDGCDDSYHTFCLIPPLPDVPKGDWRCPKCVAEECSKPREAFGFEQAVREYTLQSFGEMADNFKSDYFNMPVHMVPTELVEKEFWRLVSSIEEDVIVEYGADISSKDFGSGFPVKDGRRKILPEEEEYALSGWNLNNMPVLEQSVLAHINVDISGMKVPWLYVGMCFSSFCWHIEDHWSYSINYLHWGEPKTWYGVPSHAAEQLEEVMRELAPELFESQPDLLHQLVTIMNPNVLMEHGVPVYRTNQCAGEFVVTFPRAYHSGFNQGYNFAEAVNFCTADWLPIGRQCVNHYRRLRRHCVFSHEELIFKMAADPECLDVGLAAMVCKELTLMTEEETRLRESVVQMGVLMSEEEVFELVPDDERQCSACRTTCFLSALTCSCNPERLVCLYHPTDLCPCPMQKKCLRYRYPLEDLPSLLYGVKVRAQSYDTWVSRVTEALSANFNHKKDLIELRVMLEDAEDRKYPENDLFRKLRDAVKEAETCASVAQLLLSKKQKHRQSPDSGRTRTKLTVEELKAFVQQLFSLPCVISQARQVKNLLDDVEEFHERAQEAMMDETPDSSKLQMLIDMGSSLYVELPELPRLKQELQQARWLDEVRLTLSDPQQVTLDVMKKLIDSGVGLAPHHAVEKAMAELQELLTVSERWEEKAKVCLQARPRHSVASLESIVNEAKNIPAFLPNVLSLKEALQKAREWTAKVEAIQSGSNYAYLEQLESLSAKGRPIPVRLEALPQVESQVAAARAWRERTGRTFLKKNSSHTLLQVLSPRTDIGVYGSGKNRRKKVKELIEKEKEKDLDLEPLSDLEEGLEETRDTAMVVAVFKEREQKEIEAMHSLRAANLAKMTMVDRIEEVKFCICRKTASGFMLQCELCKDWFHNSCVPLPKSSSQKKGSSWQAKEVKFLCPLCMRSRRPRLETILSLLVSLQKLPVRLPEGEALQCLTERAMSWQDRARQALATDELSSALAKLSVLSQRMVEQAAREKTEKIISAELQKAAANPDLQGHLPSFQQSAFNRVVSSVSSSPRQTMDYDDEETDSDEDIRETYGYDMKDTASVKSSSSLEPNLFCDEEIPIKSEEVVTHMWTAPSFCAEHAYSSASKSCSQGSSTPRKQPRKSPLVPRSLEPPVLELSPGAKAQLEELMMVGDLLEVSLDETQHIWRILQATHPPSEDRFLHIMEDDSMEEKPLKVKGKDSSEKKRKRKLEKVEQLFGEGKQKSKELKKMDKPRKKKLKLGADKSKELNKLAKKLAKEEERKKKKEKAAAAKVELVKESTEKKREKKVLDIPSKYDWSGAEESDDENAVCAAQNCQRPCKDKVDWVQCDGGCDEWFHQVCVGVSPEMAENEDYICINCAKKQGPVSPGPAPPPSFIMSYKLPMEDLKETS

For the compound `C=CC(=O)Nc1cccc(CN(C)CCc2cnn(-c3nccc4c(=O)[nH]cnc34)c2)c1` [Compound 4], in assay [1], the concentration for half-maximal inhibition (IC50) (in general, the concentration at which inhibition is half-maximal) worked out at 11.3 ± 0.3 µM and the “SI over KDM5B, 2A” value turned out to be 558. In addition, the half-inhibitory concentration (IC50) in assay [2] (setting [3]) is 30 ± 4 nM. Moreover, the “SI over KDM5B, 5A” value in assay [2] amounted to 1.
Regarding `CN(CCc1cnn(-c2nccc3c(=O)[nH]cnc23)c1)Cc1cccc(NC(=O)CCl)c1` [Compound 5], in assay [1], the IC50 was 4.4 ± 0.1 µM and the “SI over KDM5B, 2A” value turned out to be 451. Further, the IC50 in assay [2] (setting [3]) was found to be 30 ± 1 nM. Also, the “SI over KDM5B, 5A” value in assay [2] is recorded as 3.
On to `CN(C)C/C=C/C(=O)Nc1cccc(CN(C)CCc2cnn(-c3nccc4c(=O)[nH]cnc34)c2)c1` [Compound 6], for which the IC50 in assay [1] is more than 33 µM; in assay [2] (setting [3]) it was 657 ± 7 nM.
`CC(C)c1c(-c2cnn(CCNC(=O)CCl)c2)[nH]c2c(C#N)cnn2c1=O` [Compound 7]: the IC50 in assay [1] was more than 100 µM; in assay [2] (120 minutes pre-incubation, read-out: KDM5A IC50) it was 10 nM. Moreover, the “SI over KDM5B, 2A” value in assay [1] is on record as more than 14113. Moreover, the “SI over KDM5B, 5A” value in assay [2] is 1.
As to `C=CC(=O)NCCOc1ccc(-c2[nH]c3c(C#N)cnn3c(=O)c2C(C)C)cc1` [Compound 9], in assay [1], the half-inhibitory concentration (IC50) is more than 100 µM and the “SI over KDM5B, 2A” value is given as more than 1550. For the same compound, the IC50 in assay [2] (setting [3]) amounted to 50 ± 2 nM. Further, the “SI over KDM5B, 5A” value in assay [2] stood at 1.
On to `C=CC(=O)N1CCC(n2cc(-c3[nH]c4c(C#N)cnn4c(=O)c3C(C)C)cn2)CC1` [Compound 10], for which, in assay [1], the IC50 is more than 100 µM and the “SI over KDM5B, 2A” value is recorded as more than 5843. The IC50 in assay [2] (setting [3]) turned out to be 70 ± 8 nM. For the same compound, the “SI over KDM5B, 5A” value in assay [2] is recorded as 4.
The corresponding values for `CC(C)c1c(-c2cnn(C3CCN(C(=O)CCl)CC3)c2)[nH]c2c(C#N)cnn2c1=O` [Compound 11] are more than 60 µM, more than 6671, 34 ± 2 nM and 4.
